Columns and labels:
Format in all cases: in vivo
[1] = Human ADME study: quantitative metabolite profiling in urine and feces; conditions: pooled excreta n=6, from metabolite patterns (radio profiling)
Description: Average pools across the six subjects were also created by combining equal percentages (of total urine and feces excreted over the time interval) of the individual subject pools. Urine pools were analyzed directly for metabolite profiling (column recovery of a representative sample was measured), whereas feces pools were subjected to extraction. Specifically, to each aliquot of feces homogenate, two volumes of acetonitrile were added. After centrifugation, the pellet was washed further with an additional two volumes of acetonitrile. […] All washes were combined, evaporated under nitrogen, and reconstituted with a solution of 15‐mM ammonium formate (pH 3.5). This feces extract reconstitute was analyzed for metabolite profiling. Combined extraction and reconstitution (overall recovery) and column recovery were measured. […] The HPLC column used was a Phenomenex Kinetex, C18, 250 × 4.6 mm, equipped with a pre‐column of the same type (2.1 × 4.6 mm), which was placed in a column oven at 40°C. […] The HPLC gradient was as follows: initial conditions were 5% mobile phase B for 1 minute, then increased to 20% at 10 minutes post injection where it was held (isocratic) up to 20 minutes. […] The post column flow was directed to the fraction collector operated in a time‐slice mode and containing 96‐well Lumaplates (Perkin Elmer). The plates were dried at room temperature and the radioactivity was measured using a microplate scintillation counter model TopCount NXT (Perkin Elmer) instrument (up to 3 × 100‐minute counting time). […] Metabolites were identified during the same injections using data generated by the high‐resolution mass spectrometer. The molecular ions and key fragments of each drug‐related component were determined. Key fragments for each metabolite were derived from their product ion mass spectra and were used to determine the metabolite structures. Where possible, structural assignments were supported by exact mass measurement, comparison with synthetic standards and/or Hydrogen/Deuterium (H/D) exchange LC‐MS(/MS).

[2] = Rat pharmacokinetic studies: plasma PK of ribociclib after single i.v. or oral dose; conditions: for Vd: read-out: Vss; for half-life: read-out: t½ (converted)
Description: (§1) ADME studies (including QWBA in pigmented and non‐pigmented rats) using radiolabeled ribociclib were conducted in rat and dog. Relevant institutional and national guides for the care and use of laboratory animals were followed. […]

[3] = Dog pharmacokinetic studies: plasma PK of ribociclib after single i.v. or oral dose; conditions: male; for half-life: read-out: t½ (converted)
Description: as §1

[4] = female, Hanover Wistar, iv, rat f (3), i.v., 4.2 mg base/kg
[5] = female, rat f (3), po, 11.1 mg base/kg
[6] = female, rat f (4), po, 51.2 mg base/kg
[7] = male, Hanover Wistar, rat m (3), po, 9.8 mg base/kg
[8] = male, Sprague Dawley, 5 mg/kg, rat m (3), po, 5.0 mg base/kg
[9] = male, Sprague Dawley, iv, 2 mg/kg, rat m (2), i.v., 2.0 mg base/kg
[10] = Beagle, 0.5 mg/kg, dog m (3), po, 0.5 mg base/kg
[11] = Beagle, 5 mg/kg, dog m (3), po, 5.0 mg base/kg
[12] = Beagle, dog m (4), po, 18.9 mg base/kg

With `CN(C)C(=O)c1cc2cnc(Nc3ccc(N4CCNCC4)cn3)nc2n1C1CCCC1` [ribociclib, Ribociclib] the “Excretion (% of dose), Feces” value [1] was 17.3 % of dose, the Vd [2, 4] was 12.2 L/kg and the half-life [2, 4] was 1.9 h. The AUC(0-t) ([2]; female, Hanover Wistar, rat, iv, 4.2 mg base/kg) was 508 ng·h/mL, the clearance ([2]; female, iv, rat f (3), 4.2 mg base/kg) was 130 mL/min/kg and the Cmax [2, 5] was 59.1 ng/mL. For the same molecule, the Tmax [2, 5] was 2 h, the AUC(0-t) ([2]; female, rat f (3), po, 11.1 mg base/kg, AUC interval 24 h) was 360 ng·h/mL and the Cmax [2, 6] was 1090 ng/mL. The Tmax [2, 6] was 0.3 h, the half-life [2, 6] was 2 h and the AUC(0-t) ([2]; female, rat, po, 51.2 mg base/kg) was 3100 ng·h/mL. For the same molecule, the clearance ([2]; male, Hanover Wistar, iv, rat m (3), 4.1 mg base/kg) was 46.7 mL/min/kg, the half-life ([2]; male, Hanover Wistar, iv, rat m (3), i.v., 4.1 mg base/kg) was 3.2 h and the Cmax [2, 7] was 130 ng/mL. For the same molecule, the Tmax [2, 7] was 4 h, the AUC(0-t) ([2]; male, Hanover Wistar, rat m (3), po, 9.8 mg base/kg, AUC interval 24 h) was 1340 ng·h/mL and the AUC(0-t) ([2]; male, Hanover Wistar, rat, iv, 4.1 mg base/kg) was 1440 ng·h/mL. For the same molecule, the Cmax [2, 8] was 126 ng/mL, the Tmax [2, 8] was 2 h and the bioavailability [2, 8] was 55%. It also gave a Vd [2, 9] of 9.9 L/kg, a half-life [2, 9] of 2.8 h and an AUC(0-t) ([2]; male, Sprague Dawley, rat, iv, 2 mg/kg) of 587 ng·h/mL. It also gave an AUC(0-t) ([2]; male, Sprague Dawley, rat, po, 5 mg/kg) of 672 ng·h/mL, a clearance ([2]; male, iv, rat m (2), 2.0 mg base/kg) of 51.7 mL/min/kg and a Vd ([2]; male, iv, rat m (3), i.v., 4.1 mg base/kg) of 7.9 L/kg. The bioavailability ([2]; male, rat m (3), po, 9.8 mg base/kg) was 37%, the Cmax [3, 10] was 10.4 ng/mL and the bioavailability [3, 10] was 64%. The AUC(0-t) ([3]; Beagle, 0.5 mg/kg, dog m (3), po, 0.5 mg base/kg, AUC interval 24 h) was 155 ng·h/mL, the Cmax [3, 11] was 206 ng/mL and the Tmax [3, 11] was 1 h. It also gave an AUC(0-t) ([3]; Beagle, 5 mg/kg, dog m (3), po, 5.0 mg base/kg, AUC interval 168 h) of 4520 ng·h/mL, a half-life [3, 11] of 38.8 h and a Cmax [3, 12] of 1220 ng/mL. For the same molecule, the Tmax [3, 12] was 1 h, the bioavailability [3, 12] was 87% and the AUC(0-t) ([3]; Beagle, dog m (4), po, 18.9 mg base/kg, AUC interval 48 h) was 21100 ng·h/mL. It also gave a half-life [3, 12] of 12.6 h, an AUC(0-t) ([3]; Beagle, iv, 0.2 mg/kg, dog m (3), 0.2 mg base/kg, AUC interval 24 h) of 105 ng·h/mL and a clearance ([3]; iv, dog m (3), 0.2 mg base/kg) of 31.7 mL/min/kg. It also gave a Vd ([3]; iv, dog m (3), i.v., 0.2 mg base/kg, read-out: Vss) of 27.9 L/kg and a half-life ([3]; iv, dog m (3), i.v., 0.2 mg base/kg) of 18.1 h.

Source: article PMC7287031 (Pharmacology Research & Perspectives, 2020)
